Patent publication US10047069B2, “Compositions comprising an inhibitor of lysine specific demethylase-1” (Celgene Quanticel Research, Inc., priority 2015, dated 2018)
≈ marks a conversion by molar mass, not a printed value.

What was measured:
Type in all cases: physicochemical
[1] = Gravimetric vapor sorption (GVS); settings: 25° C.
Experimental: Sorption isotherms were obtained using a SMS DVS Intrinsic moisture sorption analyzer, controlled by DVS Intrinsic Control software v1.0.1.2 (or v 1.0.1.3). The sample temperature was maintained at 25° C. by the instrument controls. The humidity was controlled by mixing streams of dry and wet nitrogen, with a total flow rate of 200 ml/min. The relative humidity was measured by a calibrated Rotronic probe (dynamic range of 1.0-100% RH), located near the sample. The weight change, (mass relaxation) of the sample as a function of % RH was constantly monitored by the microbalance (accuracy±0.005 mg). Approximately 13 mg of sample was placed in a tared mesh stainless steel basket under ambient conditions. The sample was loaded and unloaded at 40% RH and 25° C. (typical room conditions). A moisture sorption isotherm was performed as outlined below (two scans giving one complete cycle). The standard isotherm was performed at 25° C. at 10% RH intervals over a 0%-90% RH range. Data analysis was carried out using Microsoft Excel using DVS Analysis Suite v6.2 (or 6.1 or 6.0). The sample was recovered after completion of the isotherm and re-analyzed by XRPD.

[2] = Thermodynamic solubility in FeSSIF; settings: for solubility at 24 h / Solubility in FeSSiF: fed state simulated intestinal fluid (FeSSIF), equilibrated at 25° C. for 24 hours; for XRPD of residue: residue of the FeSSIF solubility test, analysed by XRPD as a damp solid
Experimental: Solubility was determined by suspending sufficient compound in fed state simulated intestinal fluid (FeSSIF) to give a maximum final concentration of >3 mg/ml of the parent free-form of the compound. The suspension was equilibrated at 25° C. for 24 hours then the pH was measured. The suspension was then filtered through a glass fibre C filter. The residue was analysed by XRPD as a damp solid. The filtrate was diluted by an appropriate factor prior to analysis by HPLC. Quantitation by HPLC was performed with reference to a standard solution of approximately 0.2 mg/ml in DMSO. Different volumes of the standard, diluted and undiluted sample solutions were injected. The solubility was calculated using the peak areas determined by integration of the peak found at the same retention time as the principal peak in the standard injection. Analysis was performed on an Agilent HP1100 series system equipped with a diode array detector and using ChemStation software vB.04.03.

[3] = Stability post-storage at 40° C./75% RH assessed by XRPD; settings: for Stability post-storage at 40° C./75% RH: form change assessed by XRPD
Experimental: (§1) Representative samples for the twenty-six forms were further analysed by NMR/IC and DSC. The stability of the samples after storage at 40° C./75% RH was also assessed by XRPD. Solubility in FeSSIF media was determined for selected samples. […] IC was employed to determine the molar equivalence for inorganic counterions, sulphate and phosphate.

[4] = Thermal stability from onset of DSC events; settings: onsets of DSC events greater than 200° C.
Experimental: DSC data were collected on a Mettler DSC 823E equipped with a 34 position auto-sampler. The instrument was calibrated for energy and temperature using certified indium. Typically, 0.9-6 mg of each sample, in a pin-holed aluminum pan, was heated at 10° C./min from 25° C. to 350° C. A nitrogen purge at 50 ml/min was maintained over the sample. The instrument control and data analysis software was STARe v12.1.
The twenty remaining forms have thermal events occurring from as low as ˜30° C. These may be solvated/hydrated forms.

[5] = Salt screen assessment compared to the HCl salt
Experimental: as §1

Compound	uptake at 90% RH by GVS [1] [%]	solubility at 24 h ([2]; 25 °C, pH 4.9, fessif, thermodynamic from solid) [µg/mL]	solubility at 24 h ([2]; pH 4.9, thermodynamic from solid) [µg/mL]	XRPD of residue [2]	Stability after 14 days storage at 40° C./75% RH ([3]; 14 days, confirmed by XRPD)	Stability post-storage at 40° C./75% RH [3]	Solubility in FeSSiF [2] [mg/mL]	thermal stability [4]	stability and solubility when compared to the HCl salt [5]
COc1ccc(-c2c(-c3ccc(C#N)c(F)c3)nc(N3CCC(N)CC3)n(C)c2=O)cc1F.Cl [HCL 1, 4-[2-(4-aminopiperidin-1-yl)-5-(3-fluoro-4-methoxyphenyl)-1-methyl-6-oxo-1,6-dihydropyrimidin-4-yl]-2-fluorobenzonitrile hydrochloride]	14	740	750	Amorphous	Partial crystallization of a new form	Extra peaks observed	–	–	–
COc1ccc(-c2c(-c3ccc(C#N)c(F)c3)nc(N3CCC(N)CC3)n(C)c2=O)cc1F [PHOA 1, 4-[2-(4-aminopiperidin-1-yl)-5-(3-fluoro-4-methoxyphenyl)-1-methyl-6-oxo-1,6-dihydropyrimidin-4-yl]-2-fluorobenzonitrile]	–	–	–	Amorphous	–	No form change	0.74 (≈ 1640 µM)	good thermal stability	improved stability and solubility
COc1ccc(-c2c(-c3ccc(C#N)c(F)c3)nc(N3CCC(N)CC3)n(C)c2=O)cc1F [SO4 1, 4-[2-(4-aminopiperidin-1-yl)-5-(3-fluoro-4-methoxyphenyl)-1-methyl-6-oxo-1,6-dihydropyrimidin-4-yl]-2-fluorobenzonitrile]	–	–	–	Amorphous	–	No form change	0.72 (≈ 1590 µM)	good thermal stability	improved stability and solubility
COc1ccc(-c2c(-c3ccc(C#N)c(F)c3)nc(N3CCC(N)CC3)n(C)c2=O)cc1F [pTSA 1, 4-[2-(4-aminopiperidin-1-yl)-5-(3-fluoro-4-methoxyphenyl)-1-methyl-6-oxo-1,6-dihydropyrimidin-4-yl]-2-fluorobenzonitrile]	–	–	–	pTSA 1	–	No form change	0.87 (≈ 1930 µM)	good thermal stability	improved stability and solubility
